Reference: ChEMBL document CHEMBL1135764, “Synthesis and evaluation of Glypsi(PO(2)R-N)Pro-containing pseudopeptides as novel inhibitors of the human cyclophilin hCyp-18” (J Med Chem, 2002)
Active and inactive are the calls of the source. The rule behind the calls is not given here.

Key:
[1] = test system: cyclophilin A hCyp-18 (Homo sapiens); assay: Inhibitory activity against Human Cyclophilin hCyp-18 Peptidyl-prolyl isomerase by using the standard trypsin-coupled PPIase (peptidyl-prolyl isomerases) assay at a concentration of 100 uM
[2] = test system: cyclophilin A hCyp-18 (Homo sapiens); assay: Inhibitory activity against Human Cyclophilin hCyp-18 Peptidyl-prolyl isomerase by using the standard uncoupled PPIase (peptidyl-prolyl isomerases) assay at a concentration of 500 uM
[3] = test system: cyclophilin A hCyp-18 (Homo sapiens); assay: Inhibitory activity against Human Cyclophilin hCyp-18 Peptidyl-prolyl isomerase by using the standard uncoupled PPIase (peptidyl-prolyl isomerases) assay at a concentration of 500 uM;NI-no inhibition

Inhibition [1] [%]	Inhibition [2] [%]	NI [3]	SMILES
0			COC(=O)Cc1ccc(NC(=O)[C@H](Cc2ccccc2)NC(=O)C2CCCN2P(=O)(O)CNC(=O)[C@H](C)NC(C)=O)cc1 (stereo partly drawn)
	30	inactive	CCOP(=O)(CNC(=O)[C@H](C)NC(C)=O)N1CCCC1C(=O)N[C@H](CNc1ccc([N+](=O)[O-])cc1)Cc1ccccc1 (stereo partly drawn)
